Measured values taken from patent US20220280460A1, “METHODS AND COMPOSITIONS FOR STIMULATING EXOSOME SECRETION” (UNIVERSITY OF PITTSBURGH-OF THE COMMONWEALTH SYSTEM OF …, priority 2019, published 2022).

Assays:
[1] = tested on: UMSCC47 HPV(+) head and neck cancer cells; assay: Exosome secretion by UMSCC47 cells; type: cell-based; conditions: for exosome production by UMSCC47 cells: total exosomal protein normalized to 10^6 cells
Method: All cell lines were grown at 37° C. in the atmosphere of 5% CO2 in air. Cultures were supplemented with fetal bovine serum (FBS) depleted of exosomes by ultracentrifugation at 100,000×g for 3 h. Cells were cultured in 150 cm^2 cell culture flasks using 25 ml of culture medium. Media used for cell cultures are described in Table 1. Seeding protocol was optimized for each cell type as recently described in Ludwig N., et al., (Exp Cell Res. 2019; 378(2):149-57). After seeding, cells were allowed to attach to the flask for 6 h, were then treated with indicated reagents and incubated for 48 or 72 h as indicated.
Exosome isolation by mini-SEC: Processing of supernatants and exosome isolation by mini-SEC was performed as previously described in Ludwig et al. Briefly, cell culture supernatants were centrifuged at room temperature (RT) for 10 min at 2000×g, were transferred to new tubes for centrifugation at 10,000×g at 4° C. for 30 min and filtrated using a 0.22 μm bacterial filter. Afterwards, aliquots of supernatants were concentrated by using Vivacell 100 concentrators at 2000×g. 1 mL of concentrated supernatant was loaded on a 10 cm-long Sepharose 2-B column and individual 1 mL fractions were collected. Fraction #4 containing non-aggregated exosomes was used in subsequent assays. The established isolation technique fulfils the criteria of the MISEV2018 guidelines and therefore the term ‘exosomes’ is used.
Protein concentration: Protein concentrations were determined by using a BCA protein assay (Pierce Biotechnology, Rockford, Ill., USA) according to the manufacturer's instructions.
Tunable resistive pulse sensing (TRPS): Size distribution and concentrations of the particles in isolated exosome fractions were analyzed using tunable-resistive pulse sensing (TRPS) by qNano (Izon) as described in Ludwig N, et al., Mol Cancer Res. 2018; 16(11):1798-808.

[2] = tested on: Preglomerular vascular smooth muscle cells (PGVSMCs); assay: Exosome production by PGVSMCs from CNPase +/+ and −/− rats; type: cell-based, rat; conditions: 8-Br-2′,3′-cAMP 0.3 μM; IAA/DNP 5 μM
Text: Isolation of rat CNPASE +/+ and −/− PGVSMCs: 2′,3′-Cyclic nucleotide 3′-phosphodiesterase (CNPase) knockout rats used in this example were generated by the MCW Gene Editing Rat Resource Program. This strain was produced by injecting a CRISPR targeting the sequence […] into rat embryos. The resulting mutation was a 7 base pair deletion in exon 2. Animals were genotyped by PCR. Preglomerular vascular smooth muscle cells (PGVSMCs) were isolated from kidneys of wild type (CNPase +/+) and knockout (CNPase −/−) rats using a previously described method. Cells were cultured at 37° C. in the atmosphere of 5% CO2 in air using DMEM supplemented with exosome-depleted FBS. Exosome isolation was performed as described above.

**Q.** Which “effect on stimulation of exosome production by IAA/DNP” value ([1]; UMSCC47, in combination with IAA/DNP) does the source give for CCCn1c(=O)c2[nH]c(-c3ccc(OCC(=O)Nc4ccc(C#N)cc4)cc3)nc2n(CCC)c1=O [MRS 1754] here?
**A.** The value was “significantly decreased”.

**Q.** Nc1ncnc2c1ncn2[C@@H]1O[C@H](CO)[C@H]2OP(=O)(O)O[C@H]21 [2′,3′-cAMP] was tested. Which “exosome production by UMSCC47 cells” value [1] did it give?
**A.** The value was “stimulated exosome production, but only at high concentrations”.

**Q.** With Nc1ncnc2c1nc(Br)n2C1OC(CO)C2OP(=O)(O)OC21 (stereo not drawn) [8-Br-2′,3′-cAMP] as the compound, how does the “exosome production by UMSCC47 cells” value [1] read?
**A.** Its value is “concentration-dependent increase in exosome secretion”.

**Q.** And the “stimulation of exosome production, CNPase −/− versus CNPase +/+ PGVSMCs” value [2]?
**A.** Its value is “greater in CNPase −/− compared with CNPase +/+ cells”.

**Q.** How did the “exosome production by UMSCC47 cells” value [1] turn out when Nc1ncnc2c1ncn2[C@@H]1O[C@H](CO)[C@@H](OP(=O)(O)O)[C@H]1O [3′-AMP] was run?
**A.** The value was “significantly stimulated exosome release”.

**Q.** How did the “exosome production by UMSCC47 cells” value [1] turn out when Nc1ncnc2c1ncn2[C@@H]1O[C@H](CO)[C@@H](O)[C@H]1OP(=O)(O)O [2′-AMP] was run?
**A.** The value was “did not affect exosome secretion”.
